Results taken from US9994515B2, “Aryl naphthyl methanone oxime(s) and process for preparation thereof” (Council of Scientific & Industrial Research, priority 2013, dated 2018).

Experiments:
Format in all cases: cell-based
HCT116 = assay: Sulphorhodamine B assay in HCT116 colon cancer cells; details: Homo sapiens, HCT-116; SRB assay
SW620 = assay: Sulphorhodamine B assay in SW620 colon cancer cells; details: Homo sapiens, SW-620; SRB assay
[1] = test system: CD133+ DLD1 colon cancer cells; assay: CD133+ colon cancer stem cell population by flow cytometry; details: 20 uM, 24 h, vehicle 15.30%
Experimental: FIG. 9. Centans reduces CD133+ colon cancer stem cells with a higher efficacy than salinomycin. DLD1 colon cancer cells were treated with indicated compounds for 24h following which the CD133+ population was assessed by flow cytometry using CD133 antibody or relevant isotype control antibody (BD biosciences) in a Becton Dickinson FACS Calibur. Numbers in the dot plot represent % CD133+ cells.

DLD1 = assay: Sulphorhodamine B assay in DLD1 colon cancer cells; details: Homo sapiens, DLD-1; SRB assay
Colo205 = assay: Sulphorhodamine B assay in Colo205 colon cancer cells; details: Homo sapiens, COLO 205; SRB assay

IC50 (HCT116) | IC50 (SW620) | IC50 (DLD1) | IC50 (Colo205) | SMILES | CD133+ population after treatment (minus isotype control) [1]
> 50 µM | > 50 µM | 16.4 µM | 38.1 µM | O=c1[nH]cc(F)c(=O)[nH]1 [Compound 5-FU, 5-fluoro uracil, reference compound] | no effect
 |  |  |  | CC[C@@H](C(=O)[C@@H](C)[C@@H](O)[C@H](C)[C@@H]1O[C@@H]([C@@H](CC)C(=O)O)CC[C@@H]1C)[C@H]1O[C@]2(C=C[C@@H](O)[C@]3(CC[C@@](C)([C@H]4CC[C@](O)(CC)[C@H](C)O4)O3)O2)[C@H](C)C[C@@H]1C [salinomycin] | 5.42%
